# Test results reported in US7465549B2 (UCB, S.A., priority 2002, dated 2008).
# Where two headings read alike, the source gives them in different places.
# Key:
# [1] = molecular target: T1, levetiracetam binding site (LBS) (Rattus norvegicus, UniProt Q02563); conditions: cited from earlier work; for displacement of LEV binding: rat brain LBS
# T1 construct: host or cells: crude rat brain membranes (Noyer et al. 1995; Gillard et al. 2003)
# LBS = molecular target: T2, LBS (Rattus norvegicus, UniProt Q02563); test: autoradiography of [3H]ucb 30889 binding on rat brain sections
# T2 construct: from tissue; host or cells: rat brain (crude membranes; 25 µm sections for autoradiography)
# T2 sequence (Q02563 whole entry): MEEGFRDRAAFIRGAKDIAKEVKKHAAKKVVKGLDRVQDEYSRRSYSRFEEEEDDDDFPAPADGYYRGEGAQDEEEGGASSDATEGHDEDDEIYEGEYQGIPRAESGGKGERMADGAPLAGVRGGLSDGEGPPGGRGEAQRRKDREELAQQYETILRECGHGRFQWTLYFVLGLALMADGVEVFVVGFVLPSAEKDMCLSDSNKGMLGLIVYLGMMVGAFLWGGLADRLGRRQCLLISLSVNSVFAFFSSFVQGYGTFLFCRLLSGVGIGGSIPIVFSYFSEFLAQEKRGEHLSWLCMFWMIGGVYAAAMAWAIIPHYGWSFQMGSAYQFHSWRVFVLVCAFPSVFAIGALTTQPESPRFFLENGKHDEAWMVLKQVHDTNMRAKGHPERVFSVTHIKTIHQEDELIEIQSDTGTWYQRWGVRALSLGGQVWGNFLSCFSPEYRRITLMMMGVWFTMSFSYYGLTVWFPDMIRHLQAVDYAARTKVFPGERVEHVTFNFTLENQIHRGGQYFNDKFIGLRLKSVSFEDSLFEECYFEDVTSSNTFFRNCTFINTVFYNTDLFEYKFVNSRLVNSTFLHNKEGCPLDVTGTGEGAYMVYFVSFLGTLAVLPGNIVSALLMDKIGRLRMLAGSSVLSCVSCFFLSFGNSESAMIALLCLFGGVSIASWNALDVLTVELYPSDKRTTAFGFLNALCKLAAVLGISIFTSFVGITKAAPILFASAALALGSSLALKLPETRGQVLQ
# Protocol: (§1) Binding experiments were conducted on crude rat brain membranes at 4° C. as described in Noyer et al. (Euro. J. Pharmacol. 286: 137-146 (1995)). Incubation time for equilibrium studies was 120 min. For kinetic and competition studies, [^3H]ucb 30889 (30 Ci/mmol) was used at a concentration of 1.3 nM in 0.5 ml of a Tris-HCl (pH 7.4) buffer containing 2 mM Mg^2+. Localization of the LBS in brain substructures was assessed by autoradiography on 25 μm thick slices incubated under similar conditions. Slides were then washed twice for 10 min at 4° C. in 50 mM Tris-HCl (pH 7.4) containing 0.5% BSA, dried and exposed for 3 weeks to [^3H]Hyperfilm at −20° C. Non-specific binding (NSB) was determined by the inclusion of 1 mM LEV during the incubation period.
# [2] = system: LBS in peripheral tissues; conditions: heart, kidneys, spleen, pancreas, adrenals, lungs and liver; radiolabel studies; cited from earlier work
# [3] = system: audiogenic-susceptible mouse; conditions: cited from earlier work
# [4] = molecular target: T1, levetiracetam binding site (LBS); test: [3H]ucb 30889 binding on crude rat brain membranes (kinetics, saturation, competition)
# [5] = system: LBS in peripheral tissues; test: radioligand binding in peripheral tissues; set-up: species or system rat; conditions: 150 μg of protein/assay, 1.3 nM radioligand
# Protocol: as §1
# The limit of detection under the experimental conditions (150 μg of protein/assay and 1.3 nM of radioligand) was a Bmax of 200 fmol/mg protein.
# COS-7 = test: [3H]ucb 30889 binding in cell types
# Protocol: To identify and characterize the LBS in situ, [^3H]ucb 30889 was used to map the LBS within the brain and to study both its cellular and subcellular distribution. For rat brain autoradiography, 25 μm slices were incubated with 1.3 nM [^3H]ucb 30889 for 120 min at 4° C. in 50 mM Tris-HCl buffer (pH 7.4). Binding assays with rat brain membranes and various neuronal cell lines were performed under similar conditions. […] For photolabeling, membranes were incubated with 40 nM [^3H]ucb 30889 for 120 min at 4° C. in the same buffer, followed by irradiation with UV-light for 30 min (Fuks et al., Eur. J. Pharmacol. 478:11-19 (2003)).
# In addition, a PC12 cell line subclone, PC12a, which is low in LBS, was used to establish a pool of PC 12 cells expressing hSV2A under stable antibiotic selection.
# hSV2B = molecular target: T3, hSV2B (Homo sapiens, UniProt Q7L1I2); test: [3H]ucb 30889 binding to hSV2B in transient COS-7 system
# T3 construct: expressed in transfected cells; host or cells: COS-7, transient
# T3 sequence (Q7L1I2 whole entry): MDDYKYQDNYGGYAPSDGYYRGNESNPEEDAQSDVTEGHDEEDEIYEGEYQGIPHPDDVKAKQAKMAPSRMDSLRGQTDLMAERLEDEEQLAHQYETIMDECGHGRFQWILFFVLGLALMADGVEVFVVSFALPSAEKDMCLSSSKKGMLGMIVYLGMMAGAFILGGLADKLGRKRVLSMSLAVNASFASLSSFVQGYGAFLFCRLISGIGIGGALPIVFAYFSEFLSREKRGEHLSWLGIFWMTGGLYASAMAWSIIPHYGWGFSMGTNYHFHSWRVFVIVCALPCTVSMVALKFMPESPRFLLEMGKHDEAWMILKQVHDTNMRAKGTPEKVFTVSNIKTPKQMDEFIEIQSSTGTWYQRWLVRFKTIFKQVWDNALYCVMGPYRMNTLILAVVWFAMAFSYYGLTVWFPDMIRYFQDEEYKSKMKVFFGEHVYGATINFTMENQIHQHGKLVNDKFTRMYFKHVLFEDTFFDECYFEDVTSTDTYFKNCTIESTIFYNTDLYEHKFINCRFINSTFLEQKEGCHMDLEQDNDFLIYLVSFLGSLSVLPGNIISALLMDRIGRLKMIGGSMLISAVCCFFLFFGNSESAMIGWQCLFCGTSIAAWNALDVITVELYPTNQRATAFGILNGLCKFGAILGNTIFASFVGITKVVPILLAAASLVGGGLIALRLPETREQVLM
# hSV2C = molecular target: T4, hSV2C (Homo sapiens, UniProt Q496J9); test: [3H]ucb 30889 binding to hSV2C in transient COS-7 system
# T4 construct: expressed in transfected cells; host or cells: COS-7, transient
# T4 sequence (Q496J9 1-727): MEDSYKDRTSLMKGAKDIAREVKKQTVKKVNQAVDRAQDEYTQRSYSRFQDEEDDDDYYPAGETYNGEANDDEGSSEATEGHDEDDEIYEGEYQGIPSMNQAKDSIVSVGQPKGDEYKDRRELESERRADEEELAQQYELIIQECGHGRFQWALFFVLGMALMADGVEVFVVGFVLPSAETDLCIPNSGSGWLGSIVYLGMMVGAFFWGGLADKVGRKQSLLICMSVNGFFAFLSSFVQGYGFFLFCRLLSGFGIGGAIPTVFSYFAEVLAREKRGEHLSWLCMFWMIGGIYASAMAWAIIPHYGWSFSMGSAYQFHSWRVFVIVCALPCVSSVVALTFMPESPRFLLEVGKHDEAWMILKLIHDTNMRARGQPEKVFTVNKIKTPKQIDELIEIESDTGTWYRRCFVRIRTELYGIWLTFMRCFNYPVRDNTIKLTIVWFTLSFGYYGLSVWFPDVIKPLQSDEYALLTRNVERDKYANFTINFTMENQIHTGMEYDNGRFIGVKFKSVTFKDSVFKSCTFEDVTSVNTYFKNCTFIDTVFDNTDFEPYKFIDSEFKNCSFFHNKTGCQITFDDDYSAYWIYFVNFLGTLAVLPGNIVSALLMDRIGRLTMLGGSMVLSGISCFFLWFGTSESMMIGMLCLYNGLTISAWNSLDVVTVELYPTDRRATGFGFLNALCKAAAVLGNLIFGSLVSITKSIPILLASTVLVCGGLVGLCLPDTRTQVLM
# soluble SV2A = molecular target: T5, soluble SV2A (Rattus norvegicus, UniProt Q02563); test: binding to soluble SV2A (n-dodecyl-β-D-maltoside solubilized rat brain membranes)
# T5 construct: the soluble protein maintains its native structural conformation in n-dodecyl-β-D-maltoside; from tissue; host or cells: rat brain membranes, detergent supernatant (100,000 g)
# T5 sequence (Q02563 whole entry): as the sequence (Q02563 whole entry) above
# Protocol: The rat brain membranes were diluted in a solubilization buffer (Tris-HCl 20 mM pH 7.4, 0.25 M sucrose, protease inhibitors Complete Roche) containing n-dodecyl-β-D-maltoside 15 mM and incubated for two hours at 4° C. Subsequently, the solution was centrifuged at 4° C. for one hour at 100,000 g. […] The supernatants were incubated with [^3H]ucb 30889 as described.
# hSV2A = molecular target: T6, hSV2A (Homo sapiens, UniProt Q7L0J3); test: [3H]ucb 30889 binding to hSV2A transiently expressed in COS-7 cells; conditions: displacement of [3H]ucb 30889, COS-7 cells
# T6 construct: expressed in transfected cells; host or cells: COS-7, transient, Lipofectamine 2000, pDEST 12.2 Gateway vector (CMV promoter)
# T6 sequence (Q7L0J3 whole entry): as the sequence (Q02563 whole entry) above, with E53D, A62S, A71T, D144E, T154A, S440G, A482S, V572I, L634M counted along it
# T1 sequence (Q02563 whole entry): as the sequence (Q02563 whole entry) above
smiles,measurement,setting,value
COc1ccc(C(=O)N2CCCC2=O)cc1 [aniracetam],displacement of LEV binding,[1],displaced LEV binding
NC(=O)N1c2ccccc2C=Cc2ccccc21 [carbamazepine],displacement of LEV binding,[1],do not displace LEV binding
CCC1(C)CC(=O)NC1=O (centres unmarked) [ethosuximide],displacement of LEV binding,[1],competed with LEV
NC(=O)OCC(COC(N)=O)c1ccccc1 [felbamate],displacement of LEV binding,[1],do not displace LEV binding
"CC[C@@H](C(N)=O)N1CCCC1=O [levetiracetam, (S)-α-ethyl-2-oxo-1-pyrrolidine acetamide]",inhibition of [3H]ucb 30889 binding in brain sections,LBS,can be inhibited by levetiracetam at concentrations equivalent to those observed in in vitro binding
same,specific binding in peripheral tissues,[2],no specific binding
same,affinity for LBS,[1]; radioligand [3H]LEV,only micromolar affinity
same,suppression of seizures,[3],unexpected potent ability of LEV to suppress seizures
O=C1NC(=O)C(c2ccccc2)(c2ccccc2)N1 [phenytoin],displacement of LEV binding,[1],do not displace LEV binding
Cc1ccsc1C(=CCCN1CCC[C@@H](C(=O)O)C1)c1sccc1C [tiagabine],displacement of LEV binding,[1],do not displace LEV binding
"CC[C@@H](C(N)=O)N1CC(c2cccc(N=[N+]=[N-])c2)CC1=O (stereo partly drawn) [ucb 30889, (2S)-2-[4-(3-azidophenyl)-2-oxopyrrolidin-1-yl]butanamide]",Bmax,[4],5054±704 fmol/mg protein
same,specific binding in peripheral tissues,[5],could not be detected
same,binding to untransfected COS-7 cell line,COS-7,no binding above background
same,binding to hSV2B,hSV2B,no binding above background
same,binding to hSV2C,hSV2C,no binding above background
same,affinity for soluble SV2A compared with native membrane,soluble SV2A,equivalent to that exhibited by ligands to the native membrane
CC[C@@H](C(N)=O)N1CCCC1=O [ucb L060],affinity to hSV2A compared with LEV,hSV2A,significantly less affinity
CCCC(CCC)C(=O)O [valproate],displacement of LEV binding,[1],do not displace LEV binding
C=CC(N)CCC(=O)O (centres unmarked) [vigabatrin],displacement of LEV binding,[1],do not displace LEV binding
NS(=O)(=O)Cc1noc2ccccc12 [zonisamide],displacement of LEV binding,[1],do not displace LEV binding
